Assay results taken from ChEMBL document CHEMBL5120839, “Design, synthesis and antibacterial activity of novel pleuromutilin derivatives with thieno[2,3-d]pyrimidine substitution” (Eur J Med Chem, 2022).
In brackets after ≈: the same amount, converted by molar mass. Activity calls are given as the source filed them. The calls are words filed in the database; no cut-off is given here.

Legend:
[1] = system: Mycoplasmoides pneumoniae; experiment: Antibacterial activity against Mycoplasma pneumoniae assessed as inhibition of bacterial growth; type: functional
Shigella dysenteriae = experiment: Antibacterial activity against Shigella dysenteriae assessed as inhibition of bacterial growth; type: functional
Staphylococcus aureus [2] = experiment: Antibacterial activity against Staphylococcus aureus assessed as diameter of the inhibition circle at 1 mg/ml incubated for 48 hrs; type: functional
Staphylococcus aureus [3] = experiment: Antibacterial activity against Staphylococcus aureus assessed as inhibition of bacterial growth incubated for 24 hrs by microbroth two-fold dilution method; type: functional
Streptococcus agalactiae [4] = experiment: Antibacterial activity against Streptococcus agalactiae assessed as inhibition of bacterial growth incubated for 24 hrs by microbroth two-fold dilution method; type: functional
Escherichia coli [5] = experiment: Antibacterial activity against Escherichia coli assessed as inhibition of bacterial growth incubated for 24 hrs by microbroth two-fold dilution method; type: functional
Staphylococcus aureus [6] = experiment: Antibacterial activity against Methicillin-resistant Staphylococcus aureus BNCC 337371 assessed as inhibition of bacterial growth incubated for 24 hrs by microbroth two-fold dilution method; type: functional
Staphylococcus aureus [7] = experiment: Bactericidal activity against Staphylococcus aureus assessed as bacterial killing at 8 times MIC incubated up to 24 hrs by time kill assay; type: functional, organism-based
Staphylococcus aureus [8] = experiment: Antibacterial activity against Staphylococcus aureus assessed as bacterial growth by measuring optical density incubated for 12 hrs by real time growth curve analysis; type: functional
Streptococcus agalactiae [9] = experiment: Antibacterial activity against Streptococcus agalactiae assessed as bacterial growth by measuring optical density at 0.5 times MIC incubated for 12 hrs by real time growth curve analysis; type: functional
Escherichia coli [10] = experiment: Antibacterial activity against Escherichia coli assessed as bacterial growth by measuring optical density at 0.5 times MIC incubated for 12 hrs by real time growth curve analysis; type: functional
Streptococcus agalactiae [11] = experiment: Antibacterial activity against Streptococcus agalactiae assessed as bacterial growth by measuring optical density at 1 to 2 times MIC incubated for 12 hrs by real time growth curve analysis; type: functional
Escherichia coli [12] = experiment: Antibacterial activity against Escherichia coli assessed as bacterial growth by measuring optical density at 1 to 2 times MIC incubated for 12 hrs by real time growth curve analysis; type: functional
Staphylococcus aureus [13] = experiment: Bactericidal activity against Staphylococcus aureus assessed as bacterial killing at 1 to 4 times MIC incubated up to 24 hrs by time kill assay; type: functional
L02 = experiment: Cytotoxicity against human L02 cells assessed as cell viability incubated for 16 hrs by MTT assay; type: toxicity, cell-based; details: l02, 16 h
HEK-293T = experiment: Cytotoxicity against human HEK293T cells assessed as cell viability incubated for 16 hrs by MTT assay; type: toxicity, cell-based
Staphylococcus aureus [14] = experiment: Bactericidal activity against Staphylococcus aureus assessed as bacterial killing at 32 times MIC incubated for 12 hrs by time kill assay; type: functional
Staphylococcus aureus [15] = experiment: Bactericidal activity against Staphylococcus aureus assessed as bacterial killing at 16 times MIC incubated for 12 hrs by time kill assay; type: functional
Staphylococcus aureus [16] = experiment: Bactericidal activity against Staphylococcus aureus assessed as bacterial killing at 32 times MIC incubated for 9 hrs by time kill assay; type: functional

Row | SMILES | MIC [1] [µg/mL] | MIC (Shigella dysenteriae) [µg/mL] | inhibition zone diameter (Staphylococcus aureus [2]) [mm] | MIC (Staphylococcus aureus [3]) [ng/mL] | MIC (Streptococcus agalactiae [4]) [µg/mL] | MIC (Escherichia coli [5]) [µg/mL] | MIC (Staphylococcus aureus [6]) [µg/mL] | Activity (Staphylococcus aureus [7]) | OD (Staphylococcus aureus [8]) | OD (Streptococcus agalactiae [9]) | OD (Escherichia coli [10]) | OD (Streptococcus agalactiae [11]) | OD (Escherichia coli [12]) | Activity (Staphylococcus aureus [13]) [%] | Activity (L02) | Activity (HEK-293T) | Activity (Staphylococcus aureus [14]) [%] | Activity (Staphylococcus aureus [15]) [%] | Activity (Staphylococcus aureus [16]) [%]
1 | C=C[C@]1(C)C[C@@H](OC(=O)CSC(C)(C)CNC(=O)[C@H](N)C(C)C)[C@]2(C)[C@H](C)CC[C@]3(CCC(=O)[C@H]32)[C@@H](C)[C@@H]1O [VALNEMULIN] | 0.03 (≈ 0.0531 µM) | 0.03 (≈ 0.0531 µM) | – | – | – | – | – | – | – | – | – | – | – | – | – | – | – | – | –
2 | C=C[C@]1(C)C[C@@H](OC(=O)CSCCN(CC)CC)[C@]2(C)[C@H](C)CC[C@]3(CCC(=O)[C@H]32)[C@@H](C)[C@@H]1O [TIAMULIN] | – | – | 25.2 | 488 (≈ 0.989 µM) | 0.122 (≈ 0.247 µM) | 15.6 (≈ 31.6 µM) | 0.488 (≈ 0.989 µM) | Active | – | – | – | – | – | – | – | – | – | – | –
3 | C=C[C@]1(C)C[C@@H](OC(=O)CSc2nc(NCCO)c3ccsc3n2)[C@]2(C)[C@H](C)CC[C@]3(CCC(=O)[C@H]32)[C@@H](C)[C@@H]1O | – | – | 33 | 1.9 (≈ 0.00323 µM) | 0.0019 (≈ 0.00323 µM) | 0.0076 (≈ 0.0129 µM) | 0.0019 (≈ 0.00323 µM) | – | <0.2 | <0.3 | <0.3 | 0.1 | 0.1 | 99.9 | Non-Toxic | Non-Toxic | – | – | –
4 | C=C[C@]1(C)C[C@@H](OC(=O)CSc2nc(N3CCNCC3)c3ccsc3n2)[C@]2(C)[C@H](C)CC[C@]3(CCC(=O)[C@H]32)[C@@H](C)[C@@H]1O | – | – | 26.8 | 7.6 (≈ 0.0124 µM) | 0.0153 (≈ 0.025 µM) | 0.976 (≈ 1.59 µM) | 0.122 (≈ 0.199 µM) | – | <0.3 | <0.3 | <0.3 | 0.1 | 0.1 | – | – | – | – | – | –
5 | C=C[C@]1(C)C[C@@H](OC(=O)CSc2nc(N3CCN(CC)CC3)c3ccsc3n2)[C@]2(C)[C@H](C)CC[C@]3(CCC(=O)[C@H]32)[C@@H](C)[C@@H]1O | – | – | 33.5 | 1.9 (≈ 0.00296 µM) | 0.122 (≈ 0.191 µM) | 0.122 (≈ 0.191 µM) | 0.0076 (≈ 0.0119 µM) | – | <0.2 | <0.3 | <0.3 | 0.1 | 0.1 | 99.9 | Non-Toxic | Non-Toxic | 99.9 | 99.9 | 99.9
